Experimental data reported in US20250188044A1 (HARBIN MEDISAN PHARMACEUTICAL CO., LTD., priority 2021, published 2025).
Like-named read-outs stand apart in the source and are kept apart here.

Key:
[1] = target: T1, PPARδ (Homo sapiens, UniProt Q03181); assay: Gal4-PPARδ(LBD) reporter gene agonistic activity assay in Cos-7 cells; assay type: cell-based; conditions: for agonistic activity for PPARδ (EC50 level, in words): Cos-7 reporter assay
T1 construct: expressed in transfected cells; host or cells: Cos-7
T1 sequence (Q03181 139-441 limits assumed): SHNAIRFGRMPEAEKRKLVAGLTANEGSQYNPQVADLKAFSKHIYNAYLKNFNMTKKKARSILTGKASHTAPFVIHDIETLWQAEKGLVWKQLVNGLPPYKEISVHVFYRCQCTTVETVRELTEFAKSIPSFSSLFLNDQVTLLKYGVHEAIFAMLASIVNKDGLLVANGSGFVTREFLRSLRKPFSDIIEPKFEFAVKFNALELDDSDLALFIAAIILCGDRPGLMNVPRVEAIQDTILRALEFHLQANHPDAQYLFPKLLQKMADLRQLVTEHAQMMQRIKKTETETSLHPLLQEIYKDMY
Procedure: (§1) Cos-7 cells (African green monkey kidney fibroblasts, commonly used tool cells) were cultured in a 10 cm cell culture dish in a DMEM complete medium containing 10% fetal bovine serum. When the cells grew to a density of about 70%, the medium was replaced with a fresh medium for later transfection. […] The plasmid working solution was then added to the cell culture dish for cell transfection. […] Test compounds were prepared into appropriate test concentrations with a complete medium and then added to the 96-well plate. […] 10 μL of lysate was pipetted into a white opaque 384-well plate, and then 10 μL of reporter gene assay buffer (purchased from Shanghai Beyotime Biological Tech. Co., Ltd.) was added. The bioluminescence was detected by using a multimode microplate reader, and the corresponding half maximal effective concentration (EC50) value was calculated according to the detection value.

[2] = target: T2, PPARα (Homo sapiens, UniProt Q07869); assay: Gal4-PPARα(LBD) reporter gene agonistic activity assay in Cos-7 cells; assay type: cell-based; conditions: for EC50: Cos-7 cells, Gal4-PPARα(LBD) reporter, 16 h, 100% = GW7647 10 nM; for agonistic activity for PPARα (EC50 level, in words): Cos-7 reporter assay
T2 construct: hPPARα (279aa-580aa); expressed in transfected cells; host or cells: Cos-7
T2 sequence (Q07869 167-468 limits assumed): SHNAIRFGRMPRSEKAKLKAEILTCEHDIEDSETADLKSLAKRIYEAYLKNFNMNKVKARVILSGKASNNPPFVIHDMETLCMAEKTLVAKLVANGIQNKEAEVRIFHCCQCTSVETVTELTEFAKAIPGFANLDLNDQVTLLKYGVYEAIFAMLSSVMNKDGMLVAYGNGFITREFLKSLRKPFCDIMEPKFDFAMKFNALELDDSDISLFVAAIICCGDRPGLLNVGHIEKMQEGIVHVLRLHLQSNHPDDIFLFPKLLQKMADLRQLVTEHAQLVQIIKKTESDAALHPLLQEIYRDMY
Procedure: as §1

[3] = target: T3, PPARγ (Homo sapiens, UniProt P37231); assay: Gal4-PPARγ(LBD) reporter gene agonistic activity assay in Cos-7 cells; assay type: cell-based
T3 construct: hPPARγ (281aa-554aa); expressed in transfected cells; host or cells: Cos-7
T3 sequence (P37231 232-505 limits assumed): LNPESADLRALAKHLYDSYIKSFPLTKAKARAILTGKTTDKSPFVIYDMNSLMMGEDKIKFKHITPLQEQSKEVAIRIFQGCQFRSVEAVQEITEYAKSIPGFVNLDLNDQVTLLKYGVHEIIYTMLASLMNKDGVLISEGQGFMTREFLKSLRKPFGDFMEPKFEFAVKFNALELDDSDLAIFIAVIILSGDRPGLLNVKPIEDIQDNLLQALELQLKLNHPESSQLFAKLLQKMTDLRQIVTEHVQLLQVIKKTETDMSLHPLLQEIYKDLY
Procedure: as §1

[4] = Metabolic stability in human liver microsomes; assay type: in vitro ADME; conditions: for half-life: human liver microsomes 0.75 mg/mL, NADPH, 0-60 min
Procedure: A 500 μM solution of the compound in acetonitrile was prepared and diluted to obtain a 1.5 μM drug working solution with a 0.1 M potassium phosphate solution. The drug working solution was co-incubated with a human liver microsome working solution at a final concentration of 0.75 mg/mL and an NADPH solution (final concentration: 550 μM), and the incubation was terminated by adding an acetonitrile solution at 0 min, 15 min, 30 min, 45 min, and 60 min. The residual amount of the compound that remained in the system at each time point was detected by using LC/MS. The absolute value k of the slope was determined by plotting the natural logarithm of the percentage of the residual amount of the compound with the time, and the calculation was performed according to the formula: T1/2 (half-life)=ln2/k=0.693/k.

[5] = Cos-7 cells, Gal4-PPARδ(LBD) reporter, 16 h, 100% = GW501516 10 nM
[6] = Cos-7 cells, Gal4-PPARγ(LBD) reporter, 16 h, 100% = Rosiglitazone 1 μM

Row | SMILES | EC50 [1, 5] [nM] | EC50 [2] [nM] | EC50 [3, 6] [nM] | metabolic stability in human liver microsomes (in words) [4] | half-life [4] [h] | EC50 [1] [nM] | agonistic activity for PPARδ (EC50 level, in words) [1] | agonistic activity for PPARα (EC50 level, in words) [2] | EC50 [3] [nM]
1 | CC(C)(Oc1ccc(Cn2ncn(-c3ccc(OC(F)(F)F)cc3)c2=O)cc1OC(F)(F)F)C(=O)O [Compound 103, 2-Methyl-2-(4-((5-oxo-4-(4-(trifluoromethoxy)phenyl)-4,5-dihydro-1H-1,2,4-triazol-1-yl)methyl)-2-(trifluoromethoxy)phenoxy)propionic acid] | 278 | 215 | 4680 | – | – | – | – | – | –
2 | Cc1cc(Cn2ncn(-c3ccc(C(F)(F)F)cc3)c2=O)cc(Cl)c1OC(C)(C)C(=O)O [Compound 143, 2-(2-Chloro-6-methyl-4-((5-oxo-4-(4-(trifluoromethyl)phenyl)-4,5-dihydro-1H-1,2,4-triazol-1-yl)methyl)phenoxy)-2-methylpropionic acid] | – | 9 | 1800 | very good metabolic stability in human liver microsomes | > 2 | 15 | at nanomolar levels | at nanomolar levels | –
3 | Cc1cc(Cn2ncn(-c3ccc(OC(F)(F)F)cc3)c2=O)ccc1OC(C)(C)C(=O)O [Compound 79, 2-Methyl-2-(2-methyl-4-((5-oxo-4-(4-(trifluoromethoxy)phenyl)-4,5-dihydro-1H-1,2,4-triazol-1-yl)methyl)phenoxy)propionic acid] | 620 | 341 | 1880 | – | – | – | – | – | –
4 | CCc1ccc(-n2cnn(Cc3cc(C)c(OC(C)(C)C(=O)O)c(C)c3)c2=O)cc1 [Compound 131, 2-(4-((4-(4-Ethylphenyl)-5-oxo-4,5-dihydro-1H-1,2,4-triazol-1-yl)methyl)-2,6-dimethylphenoxy)-2-methylpropionic acid] | 67 | 14 | 1180 | very good metabolic stability in human liver microsomes | > 2 | – | at nanomolar levels | at nanomolar levels | –
5 | Cc1cc(Cn2ncn(-c3ccc(C(F)(F)F)cc3)c2=O)cc(C(F)(F)F)c1OC(C)(C)C(=O)O [Compound 165, 2-Methyl-2-(2-methyl-4-((5-oxo-4-(4-(trifluoromethyl)phenyl)-4,5-dihydro-1H-1,2,4-triazol-1-yl)methyl)-6-(trifluoromethyl)phenoxy)propionic acid] | – | – | 812 | very good metabolic stability in human liver microsomes | > 2 | 1 | at nanomolar levels | – | –
6 | Cc1cc(Cn2ncn(-c3ccc(Br)cc3)c2=O)cc(C)c1OC(C)(C)C(=O)O [Compound 55, 2-(4-((4-(4-Bromophenyl)-5-oxo-4,5-dihydro-1H-1,2,4-triazol-1-yl)methyl)-2,6-dimethylphenoxy)-2-methylpropionic acid] | – | – | 1780 | very good metabolic stability in human liver microsomes | > 2 | 22 | at nanomolar levels | – | –
7 | Cc1cc(SCn2ncn(-c3ccc(C(F)(F)F)cc3)c2=O)ccc1OCC(=O)O [Compound 16, 2-(2-Methyl-4-(((5-oxo-4-(4-(trifluoromethyl)phenyl)-4,5-dihydro-1H-1,2,4-triazol-1-yl)methyl)thio)phenoxy)acetic acid] | – | – | – | very good metabolic stability in human liver microsomes | > 2 | – | – | – | –
8 | COc1ccc(-n2cnn(Cc3cc(C)c(OC(C)(C)C(=O)O)c(C)c3)c2=O)cc1 [Compound 107, 2-(4-((4-(4-Methoxyphenyl)-5-oxo-4,5-dihydro-1H-1,2,4-triazol-1-yl)methyl)-2,6-dimethylphenoxy)-2-methylpropionic acid] | 278 | 144 | 2020 | – | – | – | – | – | –
9 | Cc1cc(Cn2ncn(-c3ccc(Cl)cc3)c2=O)cc(C)c1OC(C)(C)C(=O)O [Compound 67, 2-(4-((4-(4-Chlorophenyl)-5-oxo-4,5-dihydro-1H-1,2,4-triazol-1-yl)methyl)-2,6-dimethylphenoxy)-2-methylpropionic acid] | 47 | 167 | 1830 | – | – | – | – | – | –
10 | Cc1ccc(-n2cnn(Cc3cc(C)c(OC(C)(C)C(=O)O)c(C)c3)c2=O)cc1 [Compound 65, 2-(2,6-Dimethyl-4-((5-oxo-4-(p-tolyl)-4,5-dihydro-1H-1,2,4-triazol-1-yl)methyl)phenoxy)-2-methylpropionic acid] | 248 | 180 | 955 | – | – | – | – | – | –
11 | Cc1cc(Cn2ncn(-c3ccc(C(C)C)cc3)c2=O)cc(C)c1OC(C)(C)C(=O)O [Compound 115, 2-(4-((4-(4-Isopropylphenyl)-5-oxo-4,5-dihydro-1H-1,2,4-triazol-1-yl)methyl)-2,6-dimethylphenoxy)-2-methylpropionic acid] | – | 8 | 1760 | – | – | – | – | – | –
12 | CC(C)(Oc1ccc(Cn2ncn(-c3ccc(C(F)(F)F)cc3)c2=O)cc1Cl)C(=O)O [Compound 125, 2-(2-Chloro-4-((5-oxo-4-(4-(trifluoromethyl)phenyl)-4,5-dihydro-1H-1,2,4-triazol-1-yl)methyl)phenoxy)-2-methylpropionic acid] | 229 | 162 | 2780 | – | – | – | – | – | –
13 | CC(C)(Oc1ccc(Cn2ncn(-c3ccc(OC(F)(F)F)cc3)c2=O)cc1Cl)C(=O)O [Compound 105] | 323 | 172 | 4920 | – | – | – | – | – | –
14 | CCc1cc(Cn2ncn(-c3ccc(OC(F)(F)F)cc3)c2=O)cc(CC)c1OC(C)(C)C(=O)O [Compound 189, 2-(2,6-Diethyl-4-((5-oxo-4-(4-(trifluoromethoxy)phenyl)-4,5-dihydro-1H-1,2,4-triazol-1-yl)methyl)phenoxy)-2-methylpropionic acid] | 42 | 59 | – | – | – | – | at nanomolar levels | at nanomolar levels | 2190
15 | CC(C)(Oc1c(Cl)cc(Cn2ncn(-c3ccc(C(F)(F)F)cc3)c2=O)cc1Cl)C(=O)O [Compound 129, 2-(2,6-Dichloro-4-((5-oxo-4-(4-(trifluoromethyl)phenyl)-4,5-dihydro-1H-1,2,4-triazol-1-yl)methyl)phenoxy)-2-methylpropionic acid] | – | 23 | 4910 | very good metabolic stability in human liver microsomes | > 2 | – | – | at nanomolar levels | –
